Measured values as given in US20260265238A1, “COMPOUNDS AND PHARMACEUTICAL COMPOSITIONS THAT DEGRADE SWI/SNF-RELATED MATRIX-ASSOCIATED ACTIN-DEPENDENT REGULATOR OF CHROMATIN SUBFAMILY A” (Plexium, Inc., priority 2023, published 2026).

Columns and labels:
[1] = biological target: T1, SMARCA4-HiBiT HeLa cells (protein which is expressed from the SMARCA4 gene) (Homo sapiens, UniProt P51532); assay: SMARCA4 degradation assay (HiBiT-fusion HeLa cell line, 24 h, luminescence); type: cell-based
T1 construct: protein which is expressed from the SMARCA2 and SMARCA4 genes; host or cells: HeLa (SMARCA4-HiBiT engineered line)
T1 sequence (P51532 whole entry, the tested form may be a part): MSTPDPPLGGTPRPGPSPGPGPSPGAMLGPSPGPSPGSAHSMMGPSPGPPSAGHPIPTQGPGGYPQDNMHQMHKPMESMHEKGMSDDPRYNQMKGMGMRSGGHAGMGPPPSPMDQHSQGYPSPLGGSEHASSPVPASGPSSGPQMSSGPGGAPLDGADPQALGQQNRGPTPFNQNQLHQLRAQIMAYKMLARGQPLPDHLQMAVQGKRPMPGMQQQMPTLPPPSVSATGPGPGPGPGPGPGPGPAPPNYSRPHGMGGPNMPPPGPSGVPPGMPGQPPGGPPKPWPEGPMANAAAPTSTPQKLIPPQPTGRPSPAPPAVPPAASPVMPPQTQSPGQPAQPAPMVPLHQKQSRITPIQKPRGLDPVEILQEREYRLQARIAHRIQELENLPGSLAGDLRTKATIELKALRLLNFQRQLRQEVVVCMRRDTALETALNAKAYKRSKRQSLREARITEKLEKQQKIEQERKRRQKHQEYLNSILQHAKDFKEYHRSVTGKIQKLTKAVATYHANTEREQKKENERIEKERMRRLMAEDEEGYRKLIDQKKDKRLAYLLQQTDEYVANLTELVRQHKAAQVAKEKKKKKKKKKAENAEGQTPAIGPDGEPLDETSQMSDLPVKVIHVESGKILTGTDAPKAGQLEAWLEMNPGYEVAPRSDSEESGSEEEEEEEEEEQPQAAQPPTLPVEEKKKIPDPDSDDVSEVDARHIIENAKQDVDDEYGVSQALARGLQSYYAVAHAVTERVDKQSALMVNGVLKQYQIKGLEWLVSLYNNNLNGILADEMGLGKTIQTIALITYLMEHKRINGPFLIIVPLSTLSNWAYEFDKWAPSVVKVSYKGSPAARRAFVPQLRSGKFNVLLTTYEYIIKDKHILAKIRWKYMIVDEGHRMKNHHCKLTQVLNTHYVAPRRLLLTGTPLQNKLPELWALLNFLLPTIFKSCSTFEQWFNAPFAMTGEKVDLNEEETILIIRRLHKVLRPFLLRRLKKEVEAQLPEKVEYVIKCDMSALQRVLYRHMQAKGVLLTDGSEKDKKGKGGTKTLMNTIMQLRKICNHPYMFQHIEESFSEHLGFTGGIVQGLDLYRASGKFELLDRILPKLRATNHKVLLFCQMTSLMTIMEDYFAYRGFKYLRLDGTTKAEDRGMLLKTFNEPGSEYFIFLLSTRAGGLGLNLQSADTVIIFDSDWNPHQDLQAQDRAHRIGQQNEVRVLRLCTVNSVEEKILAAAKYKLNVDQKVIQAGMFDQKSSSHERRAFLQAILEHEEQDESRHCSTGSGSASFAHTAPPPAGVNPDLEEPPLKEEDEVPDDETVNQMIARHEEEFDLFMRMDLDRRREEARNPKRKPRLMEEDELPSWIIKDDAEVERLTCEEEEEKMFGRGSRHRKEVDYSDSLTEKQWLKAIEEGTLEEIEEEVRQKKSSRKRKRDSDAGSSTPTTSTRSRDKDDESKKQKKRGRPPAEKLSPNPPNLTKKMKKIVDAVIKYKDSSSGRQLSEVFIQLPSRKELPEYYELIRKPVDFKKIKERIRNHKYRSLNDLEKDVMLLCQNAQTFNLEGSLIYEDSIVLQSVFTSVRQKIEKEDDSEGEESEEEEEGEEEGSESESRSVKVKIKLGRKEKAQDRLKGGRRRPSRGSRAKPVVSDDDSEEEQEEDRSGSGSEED
Method in brief: (§1)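 In this 24-hour cellular degradation readout, HiBiT-tagged HeLa lines received compound at up to typically 10 μM down to 300 pM in 10 points. After lysis with LgBiT and substrate, luminescence signals were used to build dose-response curves for DC50.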

[2] = biological target: T2, SMARCA2-HiBiT HeLa cells (protein which is expressed from the SMARCA2 gene) (Homo sapiens, UniProt P51531); assay: SMARCA2 degradation assay (HiBiT-fusion HeLa cell line, 24 h, luminescence); type: cell-based
T2 construct: protein which is expressed from the SMARCA2 and SMARCA4 genes; host or cells: HeLa (SMARCA2-HiBiT engineered line)
T2 sequence (P51531 whole entry, the tested form may be a part): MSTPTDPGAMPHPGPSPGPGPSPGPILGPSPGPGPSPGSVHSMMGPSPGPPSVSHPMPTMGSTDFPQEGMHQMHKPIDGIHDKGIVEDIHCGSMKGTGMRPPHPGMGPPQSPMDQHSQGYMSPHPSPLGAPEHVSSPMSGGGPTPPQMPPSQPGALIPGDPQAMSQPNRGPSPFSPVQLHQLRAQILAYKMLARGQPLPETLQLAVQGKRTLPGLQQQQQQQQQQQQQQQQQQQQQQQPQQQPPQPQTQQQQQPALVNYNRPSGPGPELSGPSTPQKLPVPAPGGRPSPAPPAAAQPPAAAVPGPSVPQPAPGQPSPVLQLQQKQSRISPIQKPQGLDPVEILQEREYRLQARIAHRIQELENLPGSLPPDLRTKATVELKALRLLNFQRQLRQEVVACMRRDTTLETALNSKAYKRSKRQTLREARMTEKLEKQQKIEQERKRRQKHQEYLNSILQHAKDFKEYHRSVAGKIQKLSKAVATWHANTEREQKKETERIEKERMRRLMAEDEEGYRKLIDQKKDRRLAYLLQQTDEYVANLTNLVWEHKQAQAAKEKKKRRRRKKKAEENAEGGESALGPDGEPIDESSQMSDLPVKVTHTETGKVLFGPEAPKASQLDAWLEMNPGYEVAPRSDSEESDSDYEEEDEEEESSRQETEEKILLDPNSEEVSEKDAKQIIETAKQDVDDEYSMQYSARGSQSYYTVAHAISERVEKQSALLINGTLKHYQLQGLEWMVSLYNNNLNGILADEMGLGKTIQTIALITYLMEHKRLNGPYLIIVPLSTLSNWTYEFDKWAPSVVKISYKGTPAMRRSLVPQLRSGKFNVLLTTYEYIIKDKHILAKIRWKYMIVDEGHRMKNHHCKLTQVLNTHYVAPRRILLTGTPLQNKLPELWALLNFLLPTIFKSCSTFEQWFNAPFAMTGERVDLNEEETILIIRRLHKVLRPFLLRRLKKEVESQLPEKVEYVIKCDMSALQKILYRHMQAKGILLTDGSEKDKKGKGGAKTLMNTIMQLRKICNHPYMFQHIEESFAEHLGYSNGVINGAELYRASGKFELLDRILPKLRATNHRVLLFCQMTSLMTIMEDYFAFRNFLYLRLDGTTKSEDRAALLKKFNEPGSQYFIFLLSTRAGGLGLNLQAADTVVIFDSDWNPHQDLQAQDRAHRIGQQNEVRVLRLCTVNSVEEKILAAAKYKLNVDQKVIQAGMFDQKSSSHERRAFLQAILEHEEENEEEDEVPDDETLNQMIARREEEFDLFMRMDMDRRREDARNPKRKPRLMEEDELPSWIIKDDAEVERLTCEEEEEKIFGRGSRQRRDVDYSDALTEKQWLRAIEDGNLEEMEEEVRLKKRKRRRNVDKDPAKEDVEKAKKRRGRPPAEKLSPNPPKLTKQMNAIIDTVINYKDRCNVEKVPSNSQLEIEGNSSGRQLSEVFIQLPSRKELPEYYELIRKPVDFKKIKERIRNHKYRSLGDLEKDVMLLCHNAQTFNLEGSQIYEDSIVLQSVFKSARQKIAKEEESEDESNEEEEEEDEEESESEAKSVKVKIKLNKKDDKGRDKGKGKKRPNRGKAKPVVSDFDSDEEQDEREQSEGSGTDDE
Method in brief: as §1

Row | Structure (SMILES) | DC50 [1] [nM] | inhibition at 1 µM ([1]; @ 1 μM) [%] | DC50 [2] [nM] | SMARCA2 % Degradation @ 1 μM ([2]; @ 1 μM) | inhibition at 1 µM ([1]; 1 μM) [%] | SMARCA2 % Degradation @ 1 μM ([2]; 1 μM)
1 | Nc1nnc(-c2cc(F)ccc2O)cc1N1CCCN(c2ccnc(C#CCNC(=O)c3cc4ncccn4n3)n2)CC1 [Compound P-367, N-[3-(4-{4-[3-amino-6-(5-fluoro-2-hydroxyphenyl)-4-pyridazinyl]-1,4-diazepan-1-y1}-2-pyrimidinyl)-2-propynyl]-1,4,7a-triaza-2-indenecarboxamide] | 500 to 5000 | < 30 | 500 to 5000 | ++ (++=30-70%) |  | 
2 | CC1CN(c2ccnc(C#CCN)n2)CCCN1c1cc(-c2ccccc2O)nnc1N (stereo not shown) [Compound P-40, 2-(6-amino-5-(4-(2-(3-aminoprop-1-yn-1-yl)pyrimidin-4-yl)-2-methyl-1,4-diazepan-1-yl)pyridazin-3-yl)phenol] | 500 to 5000 | < 30 | 500 to 5000 | + (+=<30%) |  | 
3 | C[C@@H]1CN(CC#Cc2nccc(N3CCCN(c4cc(-c5ccccc5O)nnc4N)CC3)n2)CCO1 [Compound P-313, 0-{5-[4-(2-{3-[(R)-2-methyl-4-morpholinyl]-1-propynyl}-4-pyrimidinyl)-1,4-diazepan-1-yl]-6-amino-3-pyridaziny1}phenol] | 500 to 5000 | < 30 | 50 to 500 | ++ (++=30-70%) |  | 
4 | Nc1nnc(-c2ccccc2O)cc1N1CCCN(c2ccnc(C#CCNCCF)n2)CC1 [Compound P-258, o-[6-amino-5-(4-{2-[3-(2-fluoroethylamino)-1-propynyl]-4-pyrimidinyl}-1,4-diazepan-1-yl)-3-pyridazinyl]phenol] | 500 to 5000 | 30 to 70 | 500 to 5000 | ++ (++=30-70%) |  | 
5 | Cn1ccnc1C#Cc1nccc(N2CCCN(c3cc(-c4ccccc4O)nnc3N)CC2)n1 [Compound P-354] | 500 to 5000 | 30 to 70 | 500 to 5000 | ++ (++=30-70%) |  | 
6 | CC(C)NC(=O)NCC#Cc1nccc(N2CCCN(c3cc(-c4ccccc4O)nnc3N)CC2)n1 [Compound P-327, 0-[6-amino-5-(4-{2-[3-(3-isopropylureido)-1-propynyl]-4-pyrimidinyl}-1,4-diazepan-1-yl)-3-pyridazinyl]phenol] | 500 to 5000 | 30 to 70 | 500 to 5000 | ++ (++=30-70%) |  | 
7 | C[C@@H]1CCN(c2cc(-c3ccccc3O)nnc2N)CCN1c1ccnc(C#CCN2[C@@H]3CC[C@H]2C[C@@H](O)C3)n1 [Compound P-261, 8-[3-(4-{(R)-4-[3-amino-6-(o-hydroxyphenyl)-4-pyridazinyl]-7-methyl-1,4-diazepan-1-yl}-2-pyrimidinyl)-2-propynyl]-8-azabicyclo[3.2.1]octan-3-ol] | 50 to 500 | 30 to 70 | 50 to 500 | +++ (+++=>70%) |  | 
8 | Nc1nnc(-c2ccccc2O)cc1N1CCCN(c2ccnc(C#Cc3cccc4nccn34)n2)CC1 [Compound P-306, 0-[5-(4-{2-[2-(1,3a-diaza-4-indenyl)ethynyl]-4-pyrimidinyl}-1,4-diazepan-1-yl)-6-amino-3-pyridazinyl]phenol] | 500 to 5000 | < 30 | 500 to 5000 | ?? |  | 
9 | Nc1nnc(-c2ccccc2O)cc1N1CCN(c2ccnc(C#CCNC(=O)c3cccc4ccoc34)n2)CC1 [Compound P-63, N-(3-(4-(4-(3-amino-6-(2-hydroxyphenyl)pyridazin-4-yl)piperazin-1-yl)pyrimidin-2-yl)prop-2-yn-1-yl)benzofuran-7-carboxamide] | 50 to 500 | 30 to 70 | 50 to 500 | ++ (++=30-70%) |  | 
10 | Nc1nnc(-c2ccccc2O)cc1N1CCN(c2ccnc(C#CCNC(=O)c3cnn4ccccc34)n2)CC1 [Compound P-65, N-(3-(4-(4-(3-amino-6-(2-hydroxyphenyl)pyridazin-4-yl)piperazin-1-yl)pyrimidin-2-yl)prop-2-yn-1-yl)pyrazolo[1,5-a]pyridine-3-carboxamide] | 50 to 500 | 30 to 70 | 50 to 500 | ++ (++=30-70%) |  | 
11 | Nc1nnc(-c2ccccc2O)cc1N1CC2CCC(C1)N2c1nc(C#CCn2ccnc2)ncc1F [Compound P-224, o-[6-amino-5-(8-{5-fluoro-2-[3-(1-imidazolyl)-1-propynyl]-4-pyrimidinyl}-3,8-diazabicyclo[3.2.1]oct-3-yl)-3-pyridazinyl]phenol] | 50 to 500 | > 70 | 50 to 500 | +++ (+++=>70%) |  | 
12 | Nc1nnc(-c2ccccc2O)cc1N1CCCN(c2ccnc(C#CCN3CCOC3=O)n2)CC1 [Compound P-374, 3-[3-(4-{4-[3-amino-6-(o-hydroxyphenyl)-4-pyridazinyl]-1,4-diazepan-1-yl}-2-pyrimidinyl)-2-propynyl]-1,3-oxazolidin-2-one] | 50 to 500 | 30 to 70 | 50 to 500 | +++ (+++=>70%) |  | 
13 | Nc1nnc(-c2ccccc2O)cc1N1CCCN(c2ccnc(C#CCNC3CC3)n2)CC1 [Compound P-301, 0-[6-amino-5-(4-{2-[3-(cyclopropylamino)-1-propynyl]-4-pyrimidinyl}-1,4-diazepan-1-yl)-3-pyridazinyl]phenol] | 500 to 5000 | 30 to 70 | 50 to 500 | ++ (++=30-70%) |  | 

Continued, values first:

Row | DC50 [1] [nM] | inhibition at 1 µM ([1]; @ 1 μM) [%] | DC50 [2] [nM] | SMARCA2 % Degradation @ 1 μM ([2]; @ 1 μM) | inhibition at 1 µM ([1]; 1 μM) [%] | SMARCA2 % Degradation @ 1 μM ([2]; 1 μM) | Structure (SMILES)
14 | 50 to 500 | 30 to 70 | 50 to 500 | ++ (++=30-70%) |  |  | CCC1CN(CC#Cc2nccc(N3CCCN(c4cc(-c5ccccc5O)nnc4N)CC3)n2)c2ccccc2O1 (stereo not shown) [Compound P-360, 0-[6-amino-5-(4-{2-[3-(2-ethyl-3,4-dihydro-2H-1,4-benzoxazin-4-yl)-1-propynyl]-4-pyrimidinyl}-1,4-diazepan-1-yl)-3-pyridazinyl]phenol]
15 | 50 to 500 |  | 50 to 500 |  | > 70 | +++ (+++=>70%) | C[C@@H]1CCN(c2cc(-c3ccccc3O)nnc2N)CCN1c1ccnc(C#C[C@@H](C)O)c1 [Compound P-401, 0-{5-[(R)-4-{2-[(R)-3-hydroxy-1-butynyl]-4-pyridyl}-5-methyl-1,4-diazepan-1-yl]-6-amino-3-pyridazinyl}phenol]
16 | 50 to 500 | > 70 | 50 to 500 | +++ (+++=>70%) |  |  | C[C@@H]1CCN(c2cc(-c3ccccc3O)nnc2N)CCN1c1ccnc(/C=C/CN2CCC2)n1 [Compound P-166, o-{5-[(R)-4-{2-[3-(1-azetidinyl)-1-propenyl]-4-pyrimidinyl}-5-methyl-1,4-diazepan-1-yl]-6-amino-3-pyridazinyl}phenol]
17 | 50 to 500 | 30 to 70 | 50 to 500 | ++ (++=30-70%) |  |  | Nc1nnc(-c2ccccc2O)cc1N1CC2(CCN(c3ccnc(C#CCNC(=O)c4cc5ncccn5n4)n3)CC2)C1 [Compound P-31, N-(3-(4-(2-(3-amino-6-(2-hydroxyphenyl)pyridazin-4-yl)-2,7-diazaspiro[3.5]nonan-7-yl)pyrimidin-2-yl)prop-2-yn-1-yl)pyrazolo[1,5-a]pyrimidine-2-carboxamide]
18 | < 50 |  | < 50 |  | 30 to 70 | ++ (++=30-70%) | CC(C#Cc1cc(N2CCN(c3cc(-c4ccccc4O)nnc3N)CC[C@H]2C)ccn1)N(C)C (stereo partly drawn) [Compound P-399, 0-{5-[(R)-4-{2-[3-(dimcthylamino)-1-butynyl]-4-pyridyl}-5-methyl-1,4-diazepan-1-y1]-6-amino-3-pyridazinyl}phenol]
19 | 50 to 500 | 30 to 70 | 50 to 500 | ++ (++=30-70%) |  |  | C[C@H]1CN(c2cc(-c3ccccc3O)nnc2N)[C@@H](C)CN1c1ccnc(C#CCNC(=O)c2cc3ncccn3n2)n1 [Compound P-343, N-[3-(4-{(2S,5S)-4-[3-amino-6-(0-hydroxyphenyl)-4-pyridaziny1]-2,5-dimethyl-1-piperazinyl}-2-pyrimidinyl)-2-propynyl]-1,4,7a-triaza-2-indenecarboxamide]
20 | 50 to 500 | 30 to 70 | 50 to 500 | +++ (+++=>70%) |  |  | C[C@@H]1CCN(c2cc(-c3ccccc3O)nnc2N)CCN1c1ccnc(C#CCN2C[C@@H]3C[C@H]2CO3)n1 [Compound P-200]
21 | 50 to 500 | 30 to 70 | 50 to 500 | ++ (++=30-70%) |  |  | Nc1nnc(-c2ccccc2O)cc1N1CCN(c2ccnc(C#CCNC(=O)c3cnc4ccccn34)n2)CC1 [Compound P-66, N-(3-(4-(4-(3-amino-6-(2-hydroxyphenyl)pyridazin-4-yl)piperazin-1-yl)pyrimidin-2-yl)prop-2-yn-1-yl)imidazo[1,2-a]pyridine-3-carboxamide]
22 | 50 to 500 |  | 50 to 500 |  |  | + (+=<30%) | C[C@@H]1CCN(c2cc(-c3ccccc3O)nnc2N)CCN1c1cc(C#CCN(C)C)ncc1Cl [Compound P-409, 0-{5-[(R)-4-{5-chloro-2-[3-(dimethylamino)-1-propynyl]-4-pyridyl}-5-methyl-1,4-diazepan-1-yl]-6-amino-3-pyridazinyl}phenol]
23 | < 50 | 30 to 70 | < 50 | ++ (++=30-70%) |  |  | C[C@@H]1CCN(c2cc(-c3ccccc3O)nnc2N)CCN1c1ccnc(C#CCN2[C@H](C)C[C@@H]2C)n1 [Compound P-223, o-{5-[(R)-4-(2-{3-[(2R,4S)-2,4-dimethyl-1-azetidinyl]-1-propynyl}-4-pyrimidinyl)-5-methyl-1,4-diazepan-1-y1]-6-amino-3-pyridazinyl}phenol]
